Source: paper PMC4827351 (Chemical Science, 2015)

Tests used:
E. coli Nissle = experiment: SEM analysis of bacterial agglutination; assay type: cell-based, Escherichia coli; details: 3 µM proHD6 treated with trypsin before incubation (trypsin inactivated with APMSF), 30 min, 50 mM Tris-maleate pH 6.4
Experimental: Bacteria were grown aerobically at 37 °C overnight in LB media. The next morning the strains were subcultured and grown to mid-logarithmic phase in LB media. An aliquot of the bacteria (0.5–2 × 10^7 CFU mL^–1) was removed, sedimented by centrifugation (7000g × 2 min, 4 °C), washed twice with 50 mM Tris-maleate buffer, pH 6.4, and then resuspended in 0.5 mL of the 50 mM Tris-maleate buffer. The bacterial suspension was incubated at room temperature for 30 min with buffer control, 0.4 μM APMSF-inactivated trypsin, 3 μM proHD6, 3 μM trypsin-cleaved proHD6, or 3 μM HD6. Trypsin-cleaved proHD6 was prepared by incubating 30 μM proHD6 with 4 μM trypsin (Affimetrix, Santa Clara, CA) for 1 h at room temperature in 50 mM Tris-maleate buffer, pH 6.4. At the end of incubation, the trypsin was inactivated by addition of APMSF (p-amidinophenylmethylsulfonylfluoride HCl, Millipore, 25 μg mL^–1), and the mixture was added to the bacterial suspension. The APMSF-inactivated trypsin was similarly prepared, except that proHD6 was omitted from the preincubation. After a 30 min incubation, the treated bacterial suspensions were sedimented by centrifugation (7000g × 5 min, 4 °C), and the buffer supernatant was carefully removed. […]

E. coli ATCC 25922 = experiment: Cuvette-based bacterial agglutination assay; assay type: cell-based, Escherichia coli; details: n = 3
Source text: We previously reported a simple cuvette-based in vitro agglutination assay that enables time-dependent monitoring of agglutination of viable bacteria by HD6.[15] We employed this assay to further characterize the trypsin-dependent activity of proHD6 on cultured bacterial cells (Fig. 4a and b). […] In these assays, we defined the “supernatant” as the culture solution in the top portion of the cuvette and the “re-suspension” as the mixture that results from agitating the entire culture after the 6 h incubation period.[15] We observed an ≈1.5-fold log reduction in CFU mL^–1 for the “supernatant” from cultures treated with combination of trypsin and proHD6 relative to the no-peptide control (Fig. 4c). Following “re-suspension”, the total CFU mL^–1 in the cuvette was indistinguishable from that of either the untreated control culture or the bacterial culture treated with proHD6.
Fig. 4 Bacterial agglutination assays for native and cleaved proHD6. (a) Agglutination of E. coli ATCC 25922 and L. monocytogenes ATCC 19115 in 50% MHB treated with proHD6 in the absence and presence of 0.4 μM trypsin or HD6 (control). (b) Representative images of cuvettes containing E. coli ATCC 25922 or L. monocytogenes ATCC 19115 after incubation with 20 μM peptides for 2 h at room temperature. (c) Plots of colony forming units (CFU mL^–1) of E. coli ATCC 25922 and L. monocytogenes ATCC 19115 after treatment with 20 μM peptides for 6 h (mean ± SDM, n = 3). Supernatant is defined as the clarified medium solution in the top portion of the culture and resuspension is defined as the mixture after thoroughly agitating the heterogeneous solution.
Stock solutions (50 μL) of HD6 and proHD6 (0, 50, 100, and 200 μM; 10× concentrations) were prepared in sterile Milli-Q water. If trypsin was required, aliquots of a 1 mg mL^–1 stock solution of TPCK-treated trypsin (Worthington) prepared in sterile Milli-Q water were added to solutions of proHD6 to afford a final trypsin concentration of 0.01 mg mL^–1. The assays were then conducted following the reported procedure.[15] […]

EPLQAEDDPLQAKAYEADAQEQRGANDQDFAVSFAEDASSSLRALGSTRAFTCHCRRSCYSTEYSYGTCTVMGINHRFCCL (disulfide (positions not given here)) [proHD6, 81-residue propeptide of human α-defensin 6, recombinant, from His6-SUMO-proHD6]
bacterial agglutination (SEM), trypsin-cleaved (E. coli Nissle): entangled and agglutinated E. coli | total CFU mL^-1 after re-suspension versus untreated control culture or culture treated with proHD6 (E. coli ATCC 25922; 20 µM proHD6 + trypsin, 6 h, entire culture agitated): indistinguishable | agglutination of bacterial culture in cuvette, with trypsin (E. coli ATCC 25922; proHD6 + 0.4 µM (0.01 mg/mL) trypsin, 10^8 CFU mL^-1, 50% MHB, room temperature): bacterial agglutination and sedimentation occurred | agglutination of bacterial culture in cuvette (E. coli ATCC 25922; proHD6 up to 20 µM, no trypsin, 10^8 CFU mL^-1, 50% MHB, 6 h, room temperature): remained homogeneous
